Results taken from US9700547B2, “Use of 6-hydroxy-2-pyridones and derivatives thereof for preparing a pharmaceutical composition that acts by inhibiting the human uridine phosphorylase enzyme” (UNIÃO BRASILEIRA DE EDUCAÇÃO E ASSISTÊNCIA, MANTENEDORA DA …, priority 2013, dated 2017).

Columns and labels:
[1] = target: T1, Human Phosphorylase Uridine 1 (hUP1) (Homo sapiens, UniProt Q16831); assay: Ki and inhibition type from substrate saturation curves, double-reciprocal analysis; type: biochemical; details: for Inhibiting type for phosphate: substrate Pi; for Inhibition type for uridine: substrate uridine
T1 sequence (Q16831 whole entry): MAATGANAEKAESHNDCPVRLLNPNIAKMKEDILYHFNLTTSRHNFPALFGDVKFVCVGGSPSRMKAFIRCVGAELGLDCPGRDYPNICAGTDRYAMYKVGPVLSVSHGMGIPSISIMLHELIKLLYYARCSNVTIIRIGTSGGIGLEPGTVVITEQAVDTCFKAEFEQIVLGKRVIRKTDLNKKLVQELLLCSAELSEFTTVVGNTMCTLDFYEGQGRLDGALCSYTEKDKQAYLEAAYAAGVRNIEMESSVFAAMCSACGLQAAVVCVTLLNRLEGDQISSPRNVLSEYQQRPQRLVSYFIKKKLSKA
Description: (§1) The enzymatic activity of the hUP1 is performed through the enzymatic essay using one spectrophotometer UV/visible where the absorbance reduction of uridine in 280 nm, for 1 min and at 37° C. was monitored.
For determining Ki for the selected inhibitors, we performed saturation curves where the concentration of one of the substrates is fixed next to the Km and the concentration of another, varied until the saturation in fixed-varying concentrations of each one of the inhibitors.
(I) v=VA/[Ka(1+I/Kii)+A(1+Kis)] (II) v=VA/[A(1+I/Kis)+Ka] (III)

[2] = target: hUP1 (Homo sapiens, UniProt Q16831); assay: isothermal titration microcalorimetry (ITC), free enzyme; type: binding
Sequence of hUP1 (Q16831 whole entry): as above
Description: (§2) For determining the thermodynamic parameters (enthalpy variation—ΔH, entropy variation—ΔS, and free energy variation of Gibbs—ΔG) were performed compounds binding essays to the enzyme in different conditions: free enzyme, complexed enzyme with the substrate Pi, and the complexed enzyme with the product ribose-1-phosphate (R1P). For such analyses, it was used isothermal titration microcalorimetry (ITC) where the equipment monitors the difference of transferred heat, between the reference cell and the sample cell, when bindings are formed or broken during the binding process. The data analysis achieved was performed through the model One Set of Sites and the determination of ΔG and the dissociation constant (KD) were through the equations (IV) and (V) below, respectively: ΔG=ΔH−TΔS (IV) KD=1/Ka (V)

[3] = target: hUP1-Pi (Homo sapiens, UniProt Q16831); assay: isothermal titration microcalorimetry (ITC), enzyme complexed with substrate Pi; type: binding
Sequence of hUP1-Pi (Q16831 whole entry): as above
Description: as §2

[4] = target: hUP1-R1P (Homo sapiens, UniProt Q16831); assay: isothermal titration microcalorimetry (ITC), enzyme complexed with product ribose-1-phosphate; type: binding
Sequence of hUP1-R1P (Q16831 whole entry): as above
Description: as §2

[5] = target: T1, Human Phosphorylase Uridine 1 (hUP1); details: literature value, said to be confirmed by own experiments; read-out: constant inhibition for uridine described on the literature; cited from earlier work
[6] = test system: intestinal mucositis caused by 5-FU; assay: intestinal mucositis model caused by 5-FU (weight, diarrhea, villus histology); type: in vivo, female Wistar mouse
Description: The compound c3 was tested in in vivo for evaluating its protection regarding intestinal mucositis caused by 5-FU. The mucositis model was developed in female Wistar mouse (180-200 g) and the animals were divided into 5 groups with 4 animals in each group: Group 1: Saline+Saline Group 2: Compound c3 (150 mg/kg)+saline Group 3: Saline+5-FU (50 mg/kg) Group 4: Compound c3 (50 mg/kg)+5-FU (50 mg/kg) Group 5: Compound c3 (150 mg/kg)+5-FU (50 mg/kg) The test compound was administrated via oral, 30 minutes before administrating the chemotherapeutic 5-FU that was administrated via intraperitoneal. This treatment was followed for 5 days with once a day administrations. In the 5th treatment day, the animals were euthanized using one inhalational anesthetic (isoflurane) and the initial portion of the intestine (corresponding to jejunum and ileus) was collected for myeloperoxidase analysis (MPO) and histological analysis of the tissue, as well blood collect for quantification analysis of the uridine in the plasma. The animals were also followed-up regarding weight loss and diarrhea.

[7] = target: T1, Human Phosphorylase Uridine 1 (hUP1); assay: hUP1 enzymatic assay, inhibition at 1 μM (UV absorbance of uridine at 280 nm); type: biochemical; details: 1 μM compound, 37° C.
Description: as §1
For determining which inhibitors would be selected for determining the inhibition constant (Ki), one cut point of 1 μM was stipulated, where only those compounds that would inhibit more than 60% of the initial activity of the enzyme would be selected for this type of analysis (Table 1). From all compounds tested, 7 molecules had its inhibition above 60% with the concentration of 1 μM (Compounds c1, c2, c3, c4, c6, c12, and c13). All essays described on this patent application were performed for these compounds and for benzil acyclo uridine (BAU), in order to perform a direct comparison of the results achieved with the better in vitro inhibitor of the hUP1 described (standard).

[8] = test system: plasma uridine; assay: uridine concentration in animals' plasma by HPLC (mucositis model); type: in vivo, female Wistar mouse; details: compound orally, either 50 mg/kg or 150 mg/kg
Description: The test compound was administrated via oral, 30 minutes before administrating the chemotherapeutic 5-FU that was administrated via intraperitoneal. This treatment was followed for 5 days with once a day administrations. In the 5th treatment day, the animals were euthanized using one inhalational anesthetic (isoflurane) and the initial portion of the intestine (corresponding to jejunum and ileus) was collected for myeloperoxidase analysis (MPO) and histological analysis of the tissue, as well blood collect for quantification analysis of the uridine in the plasma. The animals were also followed-up regarding weight loss and diarrhea.
The determination of the uridine concentration in the animals' plasma as performed by HPLC, using as mobile phase acetic acid 0.1%. First, it was made a calibration curve using commercial uridine as standard (Sigma) in the concentrations of 0.625-1.25-2.5-5.0-10.0-20.0 μM in mice plasma to keep the same matrix where the samples ones are. After the calibration curve, the plasma samples were analyzed of each group and was one positive result was achieved. As was expected, there was an increase of 4.4 times in the uridine concentration in the animals' plasma that received the compound orally, either in the dose of 50 mg/kg or in the dose of 150 mg/kg (FIGS. 5A and 5B). […]

[9] = test system: myeloperoxidase (MPO) in initial portion of the intestine; assay: MPO analysis in repeated mucositis model; type: in vivo; details: 50 mg/kg orally of 8-8 h, starting 2 days before 5-FU and 2 further days with 5-FU
Description: The last in vivo analysis was regarding the MPO. The MPO is a primary answer of inflammation, present in neutrophils, and for that it was analyzed which is the best day of euthanasia to check this primary answer. The treatment schema lasted 5 days, where the animals were divided into 2 groups with 10 animals in each (Group Saline and Group 5-FU). The 5-FU (50 mg/kg) was administrated using the intraperitoneal via, as well the Saline. The animals were put into euthanasia in 24 h, 48 h, 72 h, 96 h and 120 h after the administration (days 1-5) and the initial portion of the intestine was collected. It was verified that the best day for MPO quantification would be day 2 (48 h after 5-FU administration), such as represented in the FIG. 6, in which the statistical analysis was performed though one-way ANOVA followed by Bonferroni test. The lines represent the standard error while each column represents the mean of two animals of each group. *Significant difference regarding group Saline (*p<0.05).
The first experiment of mucositis was repeated, with 3 groups having 5 animals in each (Group Saline+Saline, Group Saline+5-FU and Group Compound c3+5-FU). […] The animals were euthanized with isoflurane and the initial portion of the intestine was analyzed. […]

[10] = c3 50 or 150 mg/kg oral 30 min before 5-FU 50 mg/kg intraperitoneal, once a day, 5 days

SMILES	Inhibiting type for phosphate [1]	Inhibition type for uridine [1]	Kd [2]	ΔG° [2]	ΔH° [2]	−TΔS (kcal/mol/deg) [2]	Kd [3]	ΔG° [3]	ΔH° [3]	−TΔS (kcal/mol/deg) [3]	Kd ([4]; hUP1-R1P 50 μM)	ΔG° ([4]; hUP1-R1P 50 μM)	ΔH° ([4]; hUP1-R1P 50 μM)	Kd ([4]; hUP1-R1P 150 μM)	ΔG° ([4]; hUP1-R1P 150 μM)	ΔH° ([4]; hUP1-R1P 150 μM)	Inhibition with 1 μM (%) [7]	inhibition at 1 µM [7]	−TΔS (kcal/mol/deg) ([4]; hUP1-R1P 50 μM)	−TΔS (kcal/mol/deg) ([4]; hUP1-R1P 150 μM)	other results
O=c1[nH]c(=O)n(COCCO)cc1Cc1ccccc1 [BAU, benzil acyclo uridine, reference compound]	Not competitive	Competitive	1200 ± 150 nM	-8.4 ± 1.0 kcal/mol	-10 ± 0.1 kcal/mol	1.5 ± 0.2 kcal/mol/deg	1400 ± 239 nM	-8.2 ± 1.4 kcal/mol	-13 ± 0.3 kcal/mol	4.6 ± 0.8 kcal/mol/deg	1200 ± 244 nM	-8.2 ± 1.7 kcal/mol	-12 ± 0.3 kcal/mol	6600 ± 898 nM	-7.3 ± 1.0 kcal/mol	-20 ± 0.7 kcal/mol					Ki [5]: 100 nM
O=c1[nH]cc(F)c(=O)[nH]1 [Compound 5-FU, 5-fluorouracil, reference compound]																					diarrhea ([6]; 5-FU 50 mg/kg intraperitoneal, once a day, all groups that received the chemotherapeutic): developed severe diarrhea; weight loss ([6]; 5-FU 50 mg/kg intraperitoneal, once a day, with or without the compound, day 1 vs day 6): had a weight loss and this was significant; intestinal villus (histological analysis) ([6]; group that received only 5-FU, 50 mg/kg intraperitoneal): villus totally damaged
Cc1cc(O)[nH]c(=O)c1C#N [Compound c3]	Uncompetitive	Not competitive					12000 ± 1400 nM	-6.9 ± 0.8 kcal/mol	-19 ± 1.3 kcal/mol	12 ± 1.4 kcal/mol/deg	1400 ± 341 nM	-8.3 ± 2.0 kcal/mol	-31 ± 1.2 kcal/mol	40 nM	-9.8 ± 1.4 kcal/mol	-21 ± 0.1 kcal/mol	70%	> 60%	22 ± 5.4 kcal/mol	11 ± 1.5 kcal/mol	Kd ([4]; hUP1-R1P 200 μM): 20 nM; ΔG° ([4]; hUP1-R1P 200 μM): -11 ± 1.3 kcal/mol; ΔH° ([4]; hUP1-R1P 200 μM): -22 ± 0.1 kcal/mol; −TΔS (kcal/mol/deg) ([4]; hUP1-R1P 200 μM): 11 ± 1.3 kcal/mol; intestinal villus size (histological analysis) ([6]; both tested doses (50 and 150 mg/kg oral) + 5-FU 50 mg/kg intraperitoneal, 5 days): statistically equal to the group Saline and different from the group 5-FU; protection from diarrhea caused by 5-FU [6, 10]: not able to avoid these side effects; protection from weight loss caused by 5-FU [6, 10]: not able to avoid these side effects; increase in the uridine concentration in the animals' plasma [8]: 4.4 times; MPO, primary inflammation process [9]: not able to revert the primary inflammation process
Cc1c(CNCC(O)CO)c(O)[nH]c(=O)c1C#N (centres unmarked) [c4]	Uncompetitive	Competitive	20000 ± 2630 nM	-6.7 ± 0.9 kcal/mol	-22 ± 2.2 kcal/mol	15 ± 2.0 kcal/mol/deg	263 ± 26 nM	-9.3 ± 0.9 kcal/mol	-19 ± 0.1 kcal/mol	10 ± 1.0 kcal/mol/deg	4600 ± 344 nM	-7.5 ± 0.5 kcal/mol	-22 ± 0.5 kcal/mol	9400 ± 1040 nM	-7.1 ± 0.8 kcal/mol	-18 ± 0.8 kcal/mol	78%	> 60%	14 ± 1.0 kcal/mol	11 ± 1.2 kcal/mol	
Cc1c(CNC(CO)CO)c(O)[nH]c(=O)c1C#N [c6]	Uncompetitive	Competitive	5300 ± 674 nM	-7.4 ± 1.0 kcal/mol		16 ± 2.0 kcal/mol/deg	502 ± 83 nM	-9.0 ± 1.5 kcal/mol	-14 ± 0.2 kcal/mol	5.0 ± 0.8 kcal/mol/deg	7000 ± 661 nM	-7.3 ± 0.7 kcal/mol	-18 ± 0.4 kcal/mol	7000 ± 2120 nM	-7.3 ± 2.2 kcal/mol	-10 ± 1.0 kcal/mol	82%		10 ± 1.0 kcal/mol	3.3 ± 1.0 kcal/mol	
